Results: PubChem BioAssay (NCI)
“And” between values parts separate entries of the source, which are not always exact repeats. Identical values can stand only once.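 Test compounds were applied to cells in 96-well plates for 48 hours at 5 doses. GI50 marks 50% less growth. TGI: concentration producing complete growth inhibition.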

Tests used:
Assay in all cases: DTP human tumour cell line panel, 48 h
[1] = system: NCI-H23 lung
[2] = system: HCT-15 colon
[3] = system: HOP-92 NSCLC
[4] = system: SW-620 colon
[5] = system: MDA-MB-435
[6] = system: KM12 colon
[7] = system: RXF 393 renal
[8] = system: SF-539 CNS
[9] = system: COLO 205 colon
[10] = system: SK-OV-3 ovarian

Work on `Cc1ccc2c3c(c(=O)[nH]c2c1)C1(C(C#N)=C(N)O3)c2cc(Br)ccc2-c2ccc(Br)cc21` yielded a GI50 [1] of 2.11 µM, a TGI [1] of 4.62 µM and a GI50 [2] of 2.23 µM. It also gave a TGI [2] of 5.54 µM, a GI50 [3] of 1.38 µM and a TGI [3] of 3.15 µM. It also gave a GI50 [4] of 1.86 µM, a TGI [4] of 4.22 µM and a GI50 [5] of 2.05 µM. The TGI [5] was 4.7 µM, the GI50 [6] was 1.67 µM and the TGI [6] was 4.76 µM. The GI50 [7] was 1.53 µM, the TGI [7] was 3.13 µM and the GI50 [8] was 1.73 µM. For the same molecule, the TGI [8] was 3.21 µM, the GI50 [9] was 1.87 µM and the TGI [9] was 3.82 µM. The GI50 [10] was 2.47 µM and the TGI [10] was 6.45 µM.

Work on `O=C1/C(=C/c2ccc(O)cc2)CSc2ccc(Cl)cc21` yielded a GI50 [1] of 19.3 µM, a TGI [1] of 46 µM and a GI50 [2] of 8.31 µM. It also gave a TGI [2] of 21.9 µM, a GI50 [3] of 21.7 µM and a TGI [3] greater than 100 µM. The GI50 [4] was 1.99 µM, the TGI [4] was 4.04 µM and the GI50 [5] was 4.54 µM. The TGI [5] was 25.3 µM, the GI50 [6] was 3.59 µM and the TGI [6] was 15.7 µM. For the same molecule, the GI50 [7] was 17.9 µM, the TGI [7] was 37.7 µM and the GI50 [8] was 16.8 µM. The TGI [8] was 31.4 µM, the GI50 [9] was 15.6 µM and the TGI [9] was 29 µM. The GI50 [10] was 23 µM and the TGI [10] was 44.6 µM.

For `CC(C)(C)c1cc(NC(=O)Cc2ccc(-c3cnc4cc(-c5cnn(CCN6CCOCC6)c5)ccc4n3)cc2)no1`, the GI50 [1] was 0.627 µM and 1.08 µM and 0.131 µM, the TGI [1] was 50 µM and > 100 µM and > 3 µM and the GI50 [2] was 0.166 µM and 0.342 µM and 0.0517 µM. The TGI [2] was 50 µM and > 100 µM and > 3 µM, the GI50 [3] was 0.194 µM and 0.0913 µM and the TGI [3] was 2.92 µM and > 3 µM. For the same molecule, the GI50 [4] was 0.22 µM and 0.414 µM and 0.0878 µM, the TGI [4] was 9.2 µM and 67.1 µM and > 1.25 µM and the GI50 [5] was 0.356 µM and 0.452 µM and 0.0989 µM. For the same molecule, the TGI [5] was 50 µM and > 100 µM and > 3 µM, the TGI [6] was 50 µM and > 100 µM and > 3 µM and the GI50 [7] was 0.179 µM and 0.274 µM and 0.0395 µM. The TGI [7] was 1.93 µM and 1.45 µM, the GI50 [8] was 0.0878 µM and 0.236 µM and 0.344 µM and the TGI [8] was 3.68 µM and 3.05 µM and > 3 µM. The GI50 [9] was 0.836 µM and 0.0931 µM, the TGI [9] was 50 µM and > 3 µM and the GI50 [10] was 0.369 µM. It also gave a TGI [10] of 2.66 µM.

With `CC(C)(C)c1ccc(O)c(CN(Cc2cc(C(C)(C)C)ccc2O)c2ccccc2)c1` the TGI [1] was 40.8 µM, the TGI [2] was 35.8 µM and the TGI [3] was 30.7 µM. The TGI [4] was 37.6 µM, the TGI [5] was 36.4 µM and the TGI [6] was 66.7 µM. It also gave a TGI [7] of 27.5 µM, a TGI [8] of 32 µM and a TGI [9] of 30.9 µM. The TGI [10] was 84.8 µM.

Molecule `Cn1cnc([N+](=O)[O-])c1[Se]c1nc(N)nc2c1ncn2C1OC(CO)C(O)C1O` (stereo not drawn) has a TGI [1] greater than 100 µM, a TGI [2] greater than 100 µM and a TGI [3] greater than 100 µM. It also gave a TGI [4] greater than 100 µM, a TGI [5] greater than 100 µM and a TGI [6] greater than 100 µM. For the same molecule, the TGI [7] was greater than 100 µM, the TGI [8] was greater than 100 µM and the TGI [9] was greater than 100 µM. The TGI [10] was greater than 100 µM.

Molecule `COC(=O)c1c(C)[nH]c(/C=C2\N=C(c3ccc[nH]3)C=C2OC)c1C` has a GI50 [1] of 0.483 µM, a TGI [1] of 4.55 µM and a GI50 [2] of 0.0375 µM. For the same molecule, the TGI [2] was 1.24 µM, the GI50 [3] was 0.169 µM and the TGI [3] was 0.711 µM. It also gave a GI50 [4] of 0.0365 µM, a GI50 [5] of 0.108 µM and a TGI [5] of 1.46 µM. For the same molecule, the GI50 [6] was 0.0938 µM, the TGI [6] was 5.67 µM and the GI50 [7] was 0.515 µM. For the same molecule, the TGI [7] was 4.27 µM, the GI50 [8] was 0.756 µM and the TGI [8] was 2.29 µM. For the same molecule, the GI50 [9] was 0.288 µM, the TGI [9] was 1.6 µM and the GI50 [10] was 2.69 µM. It also gave a TGI [10] greater than 100 µM.

Work on `CCCCN1CSC(=S)N(Cc2ccccc2)C1` yielded a TGI [1] greater than 100 µM, a TGI [2] greater than 100 µM and a TGI [3] greater than 100 µM. The TGI [4] was greater than 100 µM, the TGI [5] was greater than 100 µM and the TGI [6] was greater than 100 µM. For the same molecule, the TGI [7] was greater than 100 µM, the TGI [8] was greater than 100 µM and the TGI [9] was 50.6 µM. It also gave a TGI [10] greater than 100 µM.
